The test system of test [1] is Achaea janata. In words: Antifeedant activity against prestarved healthy third-instar larval stage of Achaea janata assessed as area of leaf consumed after 6 hr by conventional no-choice leaf-disk bioassay. The format is functional.
Test [2] relates to Spodoptera litura. In words: Antifeedant activity against prestarved healthy third-instar larval stage of Spodoptera litura assessed as area of leaf consumed after 6 hr by conventional no-choice leaf-disk bioassay. Type of test: functional.

On to `C=CCNC1=C(C)C(=O)c2cccc(OC)c2C1=O`, for which the ED50 in test [1] worked out at 13.51 microg/cm2; in test [2], 31.22 microg/cm2.
For `CCCCCCNC1=C(C)C(=O)c2cccc(OC)c2C1=O` the same measures were 73.31 microg/cm2 and 278.34 microg/cm2.
For `C/C=C(\C)C(=O)O[C@H]1C[C@@H](OC(C)=O)[C@@]2(C(=O)OC)CO[C@H]3[C@@H](O)[C@@](C)([C@]45O[C@@]4(C)[C@@H]4C[C@H]5O[C@@H]5OC=C[C@@]54O)[C@H]4[C@]1(CO[C@]4(O)C(=O)OC)[C@@H]32` [AZADIRACHTIN A] the same measures were 0.72 microg/cm2 and 0.89 microg/cm2.
For `CC1=CC(=O)c2c(O)cccc2C1=O` [PLUMBAGIN] the same measures were 23.97 microg/cm2 and 43.71 microg/cm2.
Regarding `COc1cccc2c1C(=O)C(NCc1ccc(C(F)(F)F)cc1)=C(C)C2=O`, the results for the ED50 in test [1] and in test [2] were 21.82 microg/cm2 and more than 500 microg/cm2, respectively.
Regarding `CCCCCCCCCCNC1=C(C)C(=O)c2cccc(OC)c2C1=O`, the ED50 is 30.25 microg/cm2 in test [1] and 31.109 microg/cm2 in test [2].
Taken in the same sequence, the figures for `CCNC1=C(C)C(=O)c2cccc(OC)c2C1=O` were 24.41 microg/cm2 and more than 500 microg/cm2.
Regarding `CCCCCCCCNC1=C(C)C(=O)c2cccc(OC)c2C1=O`, the ED50 in test [1] is given as 44.76 microg/cm2; in test [2], more than 500 microg/cm2.
As to `COc1cccc2c1C(=O)C(NCc1ccc(F)cc1)=C(C)C2=O`, the figures for the ED50 in test [1] and in test [2] were 51.091 microg/cm2 and 302.32 microg/cm2, respectively.
Taken in the same sequence, the figures for `COc1ccc(CNC2=C(C)C(=O)c3cccc(OC)c3C2=O)cc1` were more than 500 microg/cm2 and more than 500 microg/cm2.
For `CCCCNC1=C(C)C(=O)c2cccc(OC)c2C1=O` the same measures were more than 500 microg/cm2 and 64.08 microg/cm2.
Taken in the same sequence, the figures for `CCCCCCCCCCCCNC1=C(C)C(=O)c2cccc(OC)c2C1=O` were 59.62 microg/cm2 and more than 500 microg/cm2.
Consider `CCCNC1=C(C)C(=O)c2cccc(OC)c2C1=O`, for which the ED50 in test [1] and in test [2] was more than 500 microg/cm2 throughout.
With `CCCCCCCC/C=C/CCCCCCCCNC1=C(C)C(=O)c2cccc(OC)c2C1=O`, the ED50 in test [1] is on record as 26.49 microg/cm2; in test [2] it was 180.36 microg/cm2.
Take `COc1cccc2c1C(=O)C(NCc1ccccc1)=C(C)C2=O`: the ED50 in test [1] and in test [2] was more than 500 microg/cm2 in each case.
`CCCCCCCCCCCCCCCCNC1=C(C)C(=O)c2cccc(OC)c2C1=O`: the values for the ED50 in test [1] and in test [2] were 64.23 microg/cm2 and 16.77 microg/cm2, respectively.
For `CCCCCCCCCNC1=C(C)C(=O)c2cccc(OC)c2C1=O` the same measures were 24.04 microg/cm2 and 32.5 microg/cm2.

(Values after ChEMBL document CHEMBL3045389, “Synthesis and insect antifeedant activity of plumbagin derivatives” (2012).)
